The source of these data is patent US8846658B2, “Oxazine derivatives and their use in the treatment of neurological disorders” (Novartis AG, priority 2009, dated 2014).

Each structure is given as a SMILES string. Counter-ions that a name gives are not always drawn.

A word on the IC50: it is the concentration that gives 50% inhibition.

A short description of the test: Test 4: Inhibition of cellular release of amyloid peptide 1-40. It is filed as cell-based, Chinese hamster. The following applies: Cricetulus griseus; Test 4, CHO cells transfected with APP, 24 hours with test compound, amyloid peptide 1-40 in supernatant; read-out: Bace IC50. How it is done:
Test 4: Inhibition of Cellular Release of Amyloid Peptide 1-40
Chinese hamster ovary cells are transfected with the gene for amyloid precursor protein. The cells are plated at a density of 8000 cells/well into 96-well microtiter plates and cultivated for 24 hours in DMEM cell culture medium containing 10% FCS. The test compound is added to the cells at various concentrations, and the cells are cultivated for 24 hours in the presence of the test compound. The supernatants are collected, and the concentration of amyloid peptide 1-40 is determined using state of the art immunoassay techniques, for example sandwich ELISA, homogenous time-resolved fluorescence (HTRF) immunoassay, or electro-chemiluminescence immunoassay.

Take `Cc1cc(Br)cnc1C(=O)Nc1ccc(F)c(C2(C)COCC(N)=N2)c1` (stereo not shown) [Example 64]: the IC50 was 4 nM. For `COc1cnc(C(=O)Nc2ccc(F)c([C@]3(C(F)F)COCC(N)=N3)c2)c(N)n1` [Example 175], the IC50 was determined as 4 nM. In the case of `Cl.[2H]c1nc(C(=O)Nc2ccc(F)c([C@]3(C(F)F)COCC(N)=N3)c2)c(C([2H])([2H])[2H])c([2H])c1Br` [Example 116, 5-Bromo-4,6-dideutero-3-trideuteromethyl-pyridine-2-carboxylic acid [3-((R)-5-amino-3-difluoromethyl-3,6-dihydro-2H-[1,4]oxazin-3-yl)-4-fluoro-phenyl]-amide hydrochloride], the IC50 was 4 nM. With `CC#CCOc1cnc(C(=O)Nc2ccc(F)c([C@]3(C(F)F)COCC(N)=N3)c2)cn1` [Example 164], the IC50 was determined as 1 nM. With `C[C@@]1(c2cc(NC(=O)c3ncc(Br)cn3)ccc2F)CO[C@@](C)(C(F)(F)F)C(N)=N1` [Example 71, 5-Bromo-pyrimidine-2-carboxylic acid [3-((3R,6R)-6-amino-3,6-dimethyl-6-trifluoromethyl-3,6-dihydro-2H-[1,4]oxazin-3-yl)-4-fluoro-phenyl]-amide hydrochloride] the figure was 4 nM; with `NC1=NC(c2cc(NC(=O)c3ccc(Br)cn3)ccc2F)(C(F)(F)F)CCOC1` (stereo not shown) [Example 99, 5-Bromo-pyridine-2-carboxylic acid [3-(3-amino-5-trifluoromethyl-2,5,6,7-tetrahydro-[1,4]oxazepin-5-yl)-4-fluoro-phenyl]-amide hydrochloride], 100 nM. Regarding `[2H]c1nc(C(=O)Nc2ccc(F)c([C@]3(C(F)F)COCC(N)=N3)c2)c(C([2H])([2H])[2H])c([2H])c1C#N` [Example 147, 5-Cyano-4,6-dideutero-3-trideuteromethyl-pyridine-2-carboxylic acid [3-((R)-5-amino-3-difluoromethyl-3,6-dihydro-2H-[1,4]oxazin-3-yl)-4-fluoro-phenyl]-amide], the IC50 was 8 nM. With `Cc1cc(C#N)cnc1C(=O)Nc1ccc(F)c([C@]2(C(F)F)COCC(N)=N2)c1` [Example 144, 5-Cyano-3-methyl-pyridine-2-carboxylic acid [3-((R)-5-amino-3-difluoromethyl-3,6-dihydro-2H-[1,4]oxazin-3-yl)-4-fluoro-phenyl]-amide] the figure was 6 nM; with `C[C@@]1(c2cccc(NC(=O)c3ccc(Br)cn3)c2)COCC(N)=N1` [Example 3, 5-Bromo-pyridine-2-carboxylic acid [3-((R)-5-amino-3-methyl-3,6-dihydro-2H-[1,4]oxazin-3-yl)-phenyl]-amide hydrochloride], 17 nM; with `N#Cc1ccc(C(=O)Nc2ccc(F)c([C@]3(C(F)F)COCC(N)=N3)c2)nc1` [Example 112, 5-Cyano-pyridine-2-carboxylic acid [3-((R)-5-amino-3-difluoromethyl-3,6-dihydro-2H-[1,4]oxazin-3-yl)-4-fluoro-phenyl]-amide hydrochloride], 7 nM.
